One may read the IC50 as the concentration that gives 50% inhibition. A lower IC50 goes with higher potency.

The first assay relates to Endogenous Huntingtin Protein. Put plainly: Endogenous Huntingtin Protein Assay (ELISA-based MSD electrochemiluminescence). The assay is classed as cell-based. The following applies: Table 2; MSD plates coated with MW1 (expanded polyglutamine) or MAB2166 capture antibody; "inactive" = result above the detection limit of the assay. The procedure, abridged: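 MSD electrochemiluminescence sandwich ELISA: capture with MW1 (expanded polyQ) or MAB2166 at 1 µg/mL, samples incubated overnight at 4 °C. Detection by rabbit mAb #56565 then SULFO-TAG anti-rabbit antibody, each 0.25 µg/mL for 1 h at room temperature, read in buffer T on SI 6000 imager.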
On the technique in general: In an ELISA, binding on a coated surface is turned into a signal by an enzyme label.
For `C[C@@H]1CN[C@@H](C)CN1c1ncc(-c2ccc(-c3cn[nH]c3)cc2O)nn1` (single isomer, unassigned) [Cpd 190, 2-{3-[(2R,5S)-2,5-dimethylpiperazin-1-yl]-1,2,4-triazin-6-yl}-5-(1H-pyrazol-4-yl)phenol or 2-{3-[(2S,5R)-2,5-dimethylpiperazin-1-yl]-1,2,4-triazin-6-yl}-5-(1H-pyrazol-4-yl)phenol], inhibition was half-maximal at 166 nM (IC50).
Same read-out and setting: with `Cc1nc(-c2ccc(-c3cnc(N4CCN[C@@H](C5CC5)C4)nn3)c(O)c2)ns1` [Cpd 245, 2-{3-[(3S)-3-cyclopropylpiperazin-1-yl]-1,2,4-triazin-6-yl}-5-(5-methyl-1,2,4-thiadiazol-3-yl)phenol] the figure was 11.5 nM.
`CN1CCN(c2ncc(-c3ccc(-c4cnc5nn(C)cc5c4)cc3O)nn2)CC1` [Cpd 110, 2-[3-(4-methylpiperazin-1-yl)-1,2,4-triazin-6-yl]-5-(2-methyl-2H-pyrazolo[3,4-b]pyridin-5-yl)phenol] returned an IC50 of 24.9 nM.
The same measure, in the same setting: with `Cc1nc2c(C)cc(-c3ccc(-c4cnc(N5CCN[C@@H](C(C)C)C5)nn4)c(O)c3)nn2n1` [Cpd 92, 5-(2,8-dimethyl[1,2,4]triazolo[1,5-b]pyridazin-6-yl)-2-{3-[(3S)-3-(propan-2-yl)piperazin-1-yl]-1,2,4-triazin-6-yl}phenol] the figure was 7.9 nM; with `Oc1cc(-n2nccn2)cnc1-c1cnc(N2CCN[C@@H](C3CC3)C2)nn1` [Cpd 182, 2-{3-[(3S)-3-cyclopropylpiperazin-1-yl]-1,2,4-triazin-6-yl}-5-(2H-1,2,3-triazol-2-yl)pyridin-3-ol], 173 nM; with `CC(C)[C@H]1CN(c2ncc(-c3ccc(-c4ccncc4)cc3O)nn2)CCN1` [Cpd 161, 2-{3-[(3S)-3-(propan-2-yl)piperazin-1-yl]-1,2,4-triazin-6-yl}-5-(pyridin-4-yl)phenol], 60.5 nM.
In the case of `Cn1cc2cc(-c3ccc(-c4cnc(N5CCN6CCCC6C5)nn4)c(O)c3)cc(F)c2n1` (stereo not drawn) [Cpd 95, 5-(7-fluoro-2-methyl-2H-indazol-5-yl)-2-[3-(hexahydropyrrolo[1,2-a]pyrazin-2(1H)-yl)-1,2,4-triazin-6-yl]phenol], the IC50 amounted to 8.3 nM.
`Cc1nc2c(C)nc(-c3ccc(-c4cnc(N5C[C@@H](C)N[C@@H](C)C5)nn4)c(O)c3)cn2n1` [Cpd 101, 2-{3-[(3R,5S)-3,5-dimethylpiperazin-1-yl]-1,2,4-triazin-6-yl}-5-(2,8-dimethyl[1,2,4]triazolo[1,5-a]pyrazin-6-yl)phenol] returned a 50% inhibitory concentration (IC50) of 13 nM.
With `CCc1cc(-c2ccc(-c3cnc(N4CCN[C@@H](C(C)C)C4)nn3)c(O)c2)ncn1` [Cpd 150, 5-(6-ethylpyrimidin-4-yl)-2-{3-[(3S)-3-(propan-2-yl)piperazin-1-yl]-1,2,4-triazin-6-yl}phenol], the concentration for half-maximal inhibition (IC50) came out at 139 nM.
Still for that read-out and setting: the figure for `C[C@@H]1CN(c2ncc(-c3ccc(-c4cc(F)c5nn(C)cc5c4)cc3O)nn2)C[C@H](C)N1` [Cpd 79, 2-{3-[(3R,5S)-3,5-dimethylpiperazin-1-yl]-1,2,4-triazin-6-yl}-5-(7-fluoro-2-methyl-2H-indazol-5-yl)phenol] is 5.2 nM; for `Cc1cnc(-c2ccc(-c3cnc(N4CCN[C@@H](C5CC5)C4)nn3)c(O)c2)o1` [Cpd 232, 2-{3-[(3S)-3-cyclopropylpiperazin-1-yl]-1,2,4-triazin-6-yl}-5-(5-methyl-1,3-oxazol-2-yl)phenol] it is 147 nM.
Still for that read-out and setting: the figure for `COc1cc(-c2ccc(-c3cnc(N4C[C@@H](C5CC5)N[C@@H](C)C4)nn3)c(O)c2)ncn1` [Cpd 226, 2-{3-[(3R,5S)-3-cyclopropyl-5-methylpiperazin-1-yl]-1,2,4-triazin-6-yl}-5-(6-methoxypyrimidin-4-yl)phenol] is 130 nM.
Still for that read-out and setting: with `[2H]C([2H])([2H])Oc1cc(-c2ccc(-c3cnc(N4CCN[C@@H](C5CC5)C4)nn3)c(O)c2)ncn1` [Cpd 2, 2-{3-[(3S)-3-cyclopropylpiperazin-1-yl]-1,2,4-triazin-6-yl}-5-{6-[(^2H3)methyloxy]pyrimidin-4-yl}phenol] the figure was 3.9 nM; with `CC(C)[C@H]1CN(c2ncc(-c3ccc(-c4cnsc4)cc3O)nn2)CCN1` [Cpd 250, 2-{3-[(3S)-3-(propan-2-yl)piperazin-1-yl]-1,2,4-triazin-6-yl]-5-(1,2-thiazol-4-yl)phenol], 140 nM.
As for `CC(C)(C)[C@H]1CN(c2ncc(-c3ccc(-c4c[nH]nc4F)cc3O)nn2)CCN1` [Cpd 125, 2-{3-[(3S)-3-tert-butylpiperazin-1-yl]-1,2,4-triazin-6-yl}-5-(3-fluoro-1H-pyrazol-4-yl)phenol], the IC50 came out at 7.3 nM.
Molecule `Cc1nc2ccc(-c3ccc(-c4cnc(N5C[C@@H](C)N[C@@H](C)C5)nn4)c(O)c3)nn2n1` [Cpd 100, 2-{3-[(3R,5S)-3,5-dimethylpiperazin-1-yl]-1,2,4-triazin-6-yl}-5-(2-methyl[1,2,4]triazolo[1,5-b]pyridazin-6-yl)phenol] came in with a 50% inhibitory concentration (IC50) of 10.9 nM.
Still for that read-out and setting: with `[2H]C([2H])([2H])n1cc(-c2ccc(-c3cnc(N4CCNC(C(C)C)C4)nn3)c(O)c2)cn1` (stereo not drawn) [Cpd 41, 5-[1-(^2H3)methyl-1H-pyrazol-4-yl]-2-{3-[3-(propan-2-yl)piperazin-1-yl]-1,2,4-triazin-6-yl}phenol] the figure was 110 nM; with `CC(C)[C@H]1CN(c2ncc(-c3ccc(-n4ncc5cncnc54)cc3O)nn2)CCN1` [Cpd 162, 2-{3-[(3S)-3-(propan-2-yl)piperazin-1-yl]-1,2,4-triazin-6-yl}-5-(1H-pyrazolo[3,4-d]pyrimidin-1-yl)phenol], 25.4 nM; with `CCC1CN(c2ncc(-c3ccc(-c4cc(F)c5nn(C)cc5c4)cc3O)nn2)CCN1` (stereo not drawn) [Cpd 74, 2-[3-(3-ethylpiperazin-1-yl)-1,2,4-triazin-6-yl]-5-(7-fluoro-2-methyl-2H-indazol-5-yl)phenol], 4.3 nM.
Still for that read-out and setting: the figure for `Cc1cn2cc(-c3ccc(-c4cnc(N5C[C@@H](C)N[C@@H](C)C5)nn4)c(O)c3)cc(F)c2n1` [Cpd 66, 2-{3-[(3R,5S)-3,5-dimethylpiperazin-1-yl]-1,2,4-triazin-6-yl]-5-(8-fluoro-2-methylimidazo[1,2-a]pyridin-6-yl)phenol] is 3.7 nM; for `Cn1nnc2ccc(-c3ccc(-c4cnc(N5CCN[C@@H](C6CC6)C5)nn4)c(O)c3)nc21` [Cpd 173, 2-{3-[(3S)-3-cyclopropylpiperazin-1-yl]-1,2,4-triazin-6-yl}-5-(3-methyl-3H-[1,2,3]triazolo[4,5-b]pyridin-5-yl)phenol] it is 21.3 nM.
As to `CC(C)[C@H]1CN(c2ncc(-c3ccc(-c4ncc(F)s4)cc3O)nn2)CCN1` [Cpd 196, 5-(5-fluoro-1,3-thiazol-2-yl)-2-{3-[(3S)-3-(propan-2-yl)piperazin-1-yl]-1,2,4-triazin-6-yl}phenol], the IC50 came to 492 nM.
Consider `Cc1nc2c(C3CC3)nc(-c3ccc(-c4cnc(N5C[C@@H](C)N[C@@H](C)C5)nn4)c(O)c3)cn2n1` [Cpd 109, 5-(8-cyclopropyl-2-methyl[1,2,4]triazolo[1,5-a]pyrazin-6-yl)-2-{3-[(3R,5S)-3,5-dimethylpiperazin-1-yl]-1,2,4-triazin-6-yl}phenol], for which the IC50 is 22.1 nM.
Still for that read-out and setting: the figure for `CC(C)[C@H]1CN(c2ncc(-c3ccc(-c4cnc5nsnc5c4)cc3O)nn2)CCN1` [Cpd 264, 2-{3-[(3S)-3-(propan-2-yl)piperazin-1-yl]-1,2,4-triazin-6-yl}-5-([1,2,5]thiadiazolo[3,4-b]pyridin-6-yl)phenol] is 125 nM.
On the same count and under the same terms, with `CC(C)[C@H]1CN(c2ncc(-c3ccc(-c4cn[nH]c4)cc3O)nn2)C[C@@H](C)N1` [Cpd 229, 2-{3-[(3R,5S)-3-methyl-5-(propan-2-yl)piperazin-1-yl]-1,2,4-triazin-6-yl}-5-(1H-pyrazol-4-yl)phenol] the figure was 18.2 nM.
In the case of `Cc1nc2c(C)nc(-c3ccc(-c4cnc(N5CCN[C@@H](C(C)C)C5)nn4)c(O)c3)cn2n1` [Cpd 78, 5-(2,8-dimethyl[1,2,4]triazolo[1,5-a]pyrazin-6-yl)-2-{3-[(3S)-3-(propan-2-yl)piperazin-1-yl]-1,2,4-triazin-6-yl}phenol], the half-maximal inhibitory concentration (IC50) was found to be 5.1 nM.
Still for that read-out and setting: the figure for `CC(C)(O)[C@H]1CN(c2ncc(-c3ccc(-c4c[nH]nc4F)cc3O)nn2)CCN1` [Cpd 25, 5-(3-fluoro-1H-pyrazol-4-yl)-2-{3-[(3R)-3-(2-hydroxypropan-2-yl)piperazin-1-yl]-1,2,4-triazin-6-yl]phenol] is 24.6 nM; for `Oc1cc(-c2cn[nH]c2F)cc(F)c1-c1cnc(N2CCNC(C3CC3)C2)nn1` (stereo not drawn) [Cpd 32, 2-[3-(3-cyclopropylpiperazin-1-yl)-1,2,4-triazin-6-yl]-3-fluoro-5-(5-fluoro-1H-pyrazol-4-yl)phenol] it is 40.2 nM; for `CC1([C@H]2CN(c3ncc(-c4ccc(-c5cnn6c5CCC6)cc4O)nn3)CCN2)CC1` [Cpd 280, 5-(5,6-dihydro-4H-pyrrolo[1,2-b]pyrazol-3-yl)-2-{3-[(3S)-3-(1-methylcyclopropyl)piperazin-1-yl]-1,2,4-triazin-6-yl}phenol] it is 4.5 nM.
Still for that read-out and setting: with `Cc1nc2cnc(-c3ccc(-c4cnc(N5CCN[C@@H](C(C)C)C5)nn4)c(O)c3)cn2n1` [Cpd 91, 5-(2-methyl[1,2,4]triazolo[1,5-a]pyrazin-6-yl)-2-{3-[(3S)-3-(propan-2-yl)piperazin-1-yl]-1,2,4-triazin-6-yl}phenol] the figure was 7.3 nM; with `CCC1CN(c2ncc(-c3ccc(-c4cn[nH]c4)cc3O)nn2)CCN1` (stereo not drawn) [Cpd 24, 2-[3-(3-ethylpiperazin-1-yl)-1,2,4-triazin-6-yl]-5-(1H-pyrazol-4-yl)phenol], 23.4 nM; with `CC(C)(C)[C@H]1CN(c2ncc(-c3ccc(-n4nccn4)cc3O)nn2)CCN1` [Cpd 18, 2-{3-[(3S)-3-tert-butylpiperazin-1-yl]-1,2,4-triazin-6-yl}-5-(2H-1,2,3-triazol-2-yl)phenol], 15.1 nM.

Staying with this assay, now noted: Table 3; selected compounds from WO/2019/191229 A1, same MSD assay.
Molecule `Oc1cc(-c2cn[nH]c2)ccc1-c1cnc(N2CCNCC2)nn1` [WO/2019/191229 A1 Cpd 328, reference compound] had an IC50 of 106 nM.

Values taken from patent US20230234942A1, “COMPOUNDS FOR TREATING HUNTINGTON'S DISEASE” (PTC Therapeutics, Inc., priority 2020, published 2023).
